Results published in patent publication US20230302159A1, “COMPOUNDS AND COMPOSITIONS FOR TUMOR DETECTION AND SURGICAL GUIDANCE” (Cornell University, priority 2020, published 2023).
“And” between values parts separate entries of the source, which are not always exact repeats. Equal values may be shown once. “Also recorded” adds a separate entry of the source.

Legend:
[1] = Solubility of the CypH dyes (Table 1); format: physicochemical; conditions: organic solvent or mixture; in EtOH; read-out: Solubility
Experimental: Characterization: All new CypH dyes were characterized by proton NMR and mass spectrometry to confirm identity. NMR data was consistent with the structure and mass spectrometry results gave the expected mass of the dye±0.5 amu. An HPLC method was developed (see below) and used to assess dye purity. […] Retention times on the column generally correlated with lipophilicity of the dyes with water soluble dyes containing sulfate groups eluting out earlier (@10.6 min for CypH-3, 6, 9) than CypH-1 (@11.9 min) and the more lipophilic dyes later. Optical properties of the dyes, acid dissociation constants and solubilities were also determined. Synthetic intermediates were also characterized by proton NMR.

[2] = Fluorescence properties of the CypH dyes at pH 5.0 and pH 7.5 (Table 2); format: physicochemical; conditions: for Ratio Intensity pH 5.0/7.5: fluorescence intensity pH 5.0 over pH 7.5
Description: The excitation and emission maxima of CypH-1 are 760 and 777 nm, respectively. The signal intensity ratio of pH 5 over pH 7.5 was about 10. The meso-bridge ring size, lipophilicity and electro-density of CypH-1 was modified to provide better optical property. […] The best compound from this group was CypH-5 whose fluorescence ratio of pH 5.0/pH 7.5 was increased to 22. Based on this initial structure and property relationship, the second round of 10 new analogs were designed using CypH-5 as the core, focusing on modifying the electron density on the aniline ring and the indolinium ring. Various alkyl groups, such as methyl, ethyl, propyl, isopropyl and their combinations, were applied to these two positions.
The CypH analogs with other longer alkyl chains had much lower background fluorescence. […] Among them, CypH-11, which has a methyl isopropyl aniline and an isopropyl group on the indolinium ring, gave a 112-fold enhancement in fluorescence signal. CypH-11 has absorbance and emission maxima at 766 nm and 785 nm, respectively (FIG. 4) and was selected as the lead compound (vide infra).

[3] = Absorbance and fluorescence spectra (excitation/emission maxima); format: physicochemical
[4] = system: OVASAHO/RFP-Luc subcutaneous tumors; experiment: In vivo fluorescence imaging of subcutaneous tumors by spraying, OVASAHO/RFP-Luc model; set-up: species or system mice; conditions: for fluorescence on tumor and normal tissue after spray: no washing; for signal to background ratio (tumor-to-muscle): 2 μM
Description: Detection of subcutaneous tumors by spraying. To evaluate the in vivo performance of the fluorogenic probes via the “spray-and-see” technique, an OVASAHO subcutaneous tumor model was used. For a facile signal co-registration, the cells were first engineered to express red fluorescence protein (RFP). Two weeks after subcutaneous inoculating of OVASAHO/RFP-Luc cells into both flanks, the tumors reached around 5 mm in size. The skin on the tumor area was removed, then the CypH-11 or Cy7 solution (2 μM in PBS) was sprayed once onto the exposed area. The whole body fluorescence images were continuously captured at various time points without washing (FIG. 14A). The tumor tissues were conveniently delineated by their intrinsic RFP fluorescence.
Tumor models of subcutaneous implants and peritoneal implants. All animal procedures were carried out in compliance with the approved animal protocols and guidelines of the Institutional Animal Care and Use Committee at Weil Cornell Medical College. Mice (female, SCID Hairless Outbred Mouse) were purchased from Charles River (Wilmington, MA). To establish the subcutaneous implants, a suspension of OVASAHO/RFP-Luc cells (5.0×10^6) or SKOV3/GFP-Luc cells (5.0×10^6) in 100 μL PBS was inoculated into each flank of the female nude mice on both sides. After two weeks, the tumor implants grew to around 5 mm in size and were used for the spray experiment. To establish the peritoneal implants, SKOV3/GFP-Luc cells (5.0×10^6) suspended in […] were injected into the abdominal cavities of the female nude mice. After two weeks, the tumor growth was examined with an in vivo bioluminescence imaging system followed by peritoneal injection of D-luciferin potassium solution (200 μL, 15 mg/mL) for 10 min. Generally, mice bearing multiple disseminated peritoneal implants of 5 mm size in diameter were used for the experiment.
In vivo fluorescence imaging of subcutaneous tumors. Two subcutaneous tumor models (OVASAHO/RFP-Luc and SKOV3/GFP-Luc) were used to compare the imaging capability of CypH-11, CypH-1, and Cy7. Mice bearing the subcutaneous implants were anesthetized in an induction chamber using 2% isoflurane, and anesthesia was maintained with 1.5-2.0% isoflurane via a nose cone. Sterile surgical tools were used to remove skin around the tumor. The mice images were captured using an IVIS SpectrumCT System from PerkinElmer (Waltham, MA). OVASAHO/RFP-Luc and SKOV3/GFP-Luc tumors were captured under an RFP channel (Excitation: 520-550 nm and Emission: 570-590 nm) and a GFP channel (Excitation: 450-480 nm and Emission: 510 530 nm), respectively. A Cy7 channel (Excitation: 730-760 nm and Emission: 790-810 nm) was applied to evaluate the fluorescence generated by CypH-11, CypH-1, and Cy7. After skin removal, the tumor area and the background fluorescence under the Cy7 channel were measured first. Solutions of CypH-11, CypH-1, and Cy7 (2 μM each) were sprayed on the surgical area, and the fluorescence of the Cy7 channel was measured continuously at each time point (1, 3, 5, 7, 10, and 15 min). Ten, five, and three OVASAHO tumors were used to evaluate CypH-11, CypH-1, and Cy7, respectively. Six SKOV3 tumors were used to evaluate CypH-11. To evaluate the tumor-to-normal tissue ratio, the whole tumor regions and the adjacent open-skin areas were drawn, and their fluorescence intensity was acquired by the IVIS software. Tumor-to-normal tissue ratio value was calculated as the average fluorescence intensity of the tumor divided by that of the normal area. Also, tumor-bearing mice were euthanized by carbon dioxide inhalation or a high dose of isoflurane (5%). The subcutaneous tumors and the adjacent muscles were then extracted, and CypH-11 (2 μM) was sprayed onto them. Images were subsequently captured under GFP/RFP/Cy7 channels.

[5] = conditions not stated, previously published lead probe

| Structure (SMILES) | Solubility [1] [µM] | Ratio Intensity pH 5.0/7.5 [2] | Ratio Intensity pH 5.0/7.5 ([2]; listed as 1) | FL Intensity pH 5.0 [2] | FL Max (nm) pH 5.0 [2] [nm] | FL Intensity pH 7.5 [2] | FL Max (nm) pH 7.5 [2] [nm] | emission maximum [3, 5] [nm] | excitation maximum [3, 5] [nm] | tumor to muscle ratio over the time course ([4]; 2 μM sprayed, all time points) | fluorescence on tumor and normal tissue after spray ([4]; 2 μM sprayed) | Ratio Intensity pH 5.0/7.5 ([2]; listed as 11) | Emmax / emission maximum ([3]; 2 μM, pH 5.0 phosphate buffer) [nm] | Exmax / absorbance maximum ([3]; 2 μM, pH 5.0 phosphate buffer) | time to fluorescence plateau ([4]; 2 μM in PBS, sprayed once) [min] | signal to background ratio (tumor-to-muscle) ([4]; 1 min after spray) | signal to background ratio (tumor-to-muscle) ([4]; 5 min after spray) | signal to background ratio (tumor-to-muscle) ([4]; 10 min after spray) |
| --- | --- | --- | --- | --- | --- | --- | --- | --- | --- | --- | --- | --- | --- | --- | --- | --- | --- | --- |
| CN(C)c1ccc(OC2=C(/C=C/C3=[N+](C)c4ccccc4C3(C)C)CCC/C2=C\C=C2\N(C)c3ccccc3C2(C)C)cc1.[Cl-] [CypH-1, reference compound] | > 1000 | about 10 | 10.1 | 3363 | 787 | 334 | 782 | 777 | 760 | around 1.0 | failed to detect the ovarian tumors by spraying; also recorded: very poor fluorescence enhancement in both the tumor and neighboring normal tissues |  |  |  |  |  |  |  |
| CC(C)N(C)c1ccc(OC2=C(/C=C/C3=[N+](C(C)C)c4ccccc4C3(C)C)CCC/C2=C\C=C2\N(C(C)C)c3ccccc3C2(C)C)cc1.[I-] [CypH-11] | > 1000 | 112 |  | 5028 | 790 | 45 | 785 |  |  |  | high fluorescence only on tumors but not on normal tissue | 111.7 | 785 | 766 nm and 765 nm | ≤ 10 | 1.3 | 1.4 | 1.5 |
